According to US20240197650A1, “Combination of Cinnamaldheyde and Eugenol with Antimycotic Activity” (priority 2021, published 2024):
In brackets after ≈: the same amount, converted by molar mass. Blank lines part the entries; values can stand above or below the compound they belong to.

What was measured:
Candida spp. [1] = assay: Disk diffusion method, 18 Candida spp. strains (distribution); assay type: cell-based
Method: (§1) A total of eighteen strains belonging to Candida spp. (15 C. albicans, 2 C. glabrata and 1 C. lusitaniae) derived from a collection of vaginal strains isolated in CHROMAgar Candida (BD Italia SpA, Milan, Italy) were grown on Potato Dextrose Agar (Oxoid Thermofisher SpA, Milan, Italy) at 35° C. for 24 hours.
(§2) Colonies were re-suspended in sterile saline at a density corresponding to #0.5 McFarland (opacity standard). #0.5 McF correspond to 1.4×10^6 colony forming units (CFU)/ml for C. albicans, 4.3×10^6 CFU/ml for C. glabrata and 3×10^6 CFU/ml for C. lusitaniae [Guinea J. et al., Rapid antifungal susceptibility determination for yeast isolates by use of Etest performed directly on blood samples from patients with fungemia, J Clin Microbiol. 2010 June, 48(6): 2205-12]. Then, the sensitivity test vs the two oils has been performed. The disk diffusion method was carried out as follows: for each tested strain, 4 plates of Potato Dextrose Agar (PDA) were seeded in 3 directions to produce a confluent growth, by sterile swab soaked in the cell suspension. Sorbent paper disks (Oxoid Thermofisher SpA, Milan, Italy) 6.0 mm diameter were placed on the agar surface and added with 10 μl of each essential oil. Disks soaked with 10 μg amphotericin B were used as positive control. Also disks of chlortrimazole (from 10 μg to 40 μg) were used, but the inhibition rings could not be clearly read due to the formation of a re-growth ring. Disks soaked with 10 μl pure dimethylsulphoxide (DMSO, Sigma-Aldrich, St. Louis, MO, USA) were used as negative control. The plates were incubated at 35° C. for 24 hours. All the experiments were carried out in duplicate. The inhibiting effect of the oils were considered to be effective when the inhibition ring was equal or greater than that caused by amphotericin B. For amphotericin B, an inhibition zone (IZ)≥15 mm was considered as “sensitivity”, from 10 to 14 mm as “intermediate sensitivity” and <10 mm as “resistance” [Kauser et al., Agreement of Direct Antifungal Susceptibility Testing from Positive Blood Culture Bottles with Conventional Method for Candida Species, J Clin Microbiol. 2016 February, 54(2):343-34].

C. albicans [2] = assay: Disk diffusion method, C. albicans strains; assay type: cell-based
Method: as §1, §2

C. glabrata [3] = assay: Disk diffusion method, C. glabrata strains; assay type: cell-based
Method: as §1, §2

C. lusitaniae [4] = assay: Disk diffusion method, C. lusitaniae strain; assay type: cell-based; conditions: C. lusitaniae 1
Method: as §1
Colonies were re-suspended in sterile saline at a density corresponding to #0.5 McFarland (opacity standard). #0.5 McF correspond to 1.4×10^6 colony forming units (CFU)/ml for C. albicans, 4.3×10^6 CFU/ml for C. glabrata and 3×10^6 CFU/ml for C. lusitaniae [Guinea J. et al., Rapid antifungal susceptibility determination for yeast isolates by use of Etest performed directly on blood samples from patients with fungemia, J Clin Microbiol. 2010 June, 48(6): 2205-12]. Then, the sensitivity test vs the two oils has been performed. The disk diffusion method was carried out as follows: for each tested strain, 4 plates of Potato Dextrose Agar (PDA) were seeded in 3 directions to produce a confluent growth, by sterile swab soaked in the cell suspension. Sorbent paper disks (Oxoid Thermofisher SpA, Milan, Italy) 6.0 mm diameter were placed on the agar surface and added with 10 μl of each essential oil. Disks soaked with 10 μg amphotericin B were used as positive control. Also disks of chlortrimazole (from 10 μg to 40 μg) were used, but the inhibition rings could not be clearly read due to the formation of a re-growth ring. Disks soaked with 10 μl pure dimethylsulphoxide (DMSO, Sigma-Aldrich, St. Louis, MO, USA) were used as negative control. The plates were incubated at 35° C. for 24 hours. All the experiments were carried out in duplicate. […]

Candida spp. [5] = assay: Microdilution method MIC/MFC, 18 Candida spp. strains (distribution); assay type: cell-based; conditions: 18 strains
Method: as §1
(§3) The antifungal activity of amphotericin B and of cinnamaldheyde and eugenol were tested with the microdilution method as reported by Bona et al. [Bona et al., Sensitivity of Candida albicans to essential oils: are they an alternative to antifungal agents? J Appl Microbiol. 2016 December, 121(6): 1530-1545] with small changes. All the 18 Candida spp strains were tested. For each isolated, the colonies deriving from cultures (24 hours) in PDA were diluted in saline up to a concentration of 2×10^3 CFU/ml (so obtaining a final concentration of 10 3CGU/ml). Cinnamaldehyde and eugenol were dissolved in DMSO (80% oil, 20% DMSO), then diluted in Sabouraud broth up to a concentration of 8% v/v (so obtaining a final concentration of 4% v/v). Then, in a 96-well microtiter plate ½ serial dilution of amphotericin B (range 32-0.032 μg/ml, for a final range of 16-0.016 μg/ml) and of the essential oils (range 8-0.004% v/v, for a final range of 4-0.002% v/v) were carried out. Each well was then injected with 100 μl of cell suspension. The negative control contained DMSO diluted in Sabouraud broth (at 2% v/v, for a final concentration of 1% v/v). […] Each experiment was carried out in duplicate. The Minimum Inhibitory Concentration (MIC) was determined as the concentration of the oils in the first well which is not cloudy. The Minimum Fungicidal Concentration (MFC) was determined as the lowest concentration of the oils, with the agar culture showing the complete absence of fungal growth. The determination of the amphotericin B MIC was carried out also according to the EUCAST guidelines (cutoff 1 μg/ml) [https://eucast.org/astoffungi/clinicalbreakpointsforantifungals], all the results being consistent.

C. albicans [6] = assay: Microdilution method MIC/MFC, C. albicans strains; assay type: cell-based
Method: as §1, §3

C. glabrata [7] = assay: Microdilution method MIC/MFC, C. glabrata strains; assay type: cell-based
Method: as §1, §3

C. lusitaniae [8] = assay: Microdilution method MIC/MFC, C. lusitaniae strain; assay type: cell-based; conditions: C. lusitaniae 1
Method: as §1, §3

[9] = Additional essential oils in combination with cinnamaldehyde or eugenol; conditions: antimycotic activity
[10] = 18 strains, disk 10 μl oil or 10 μg amphotericin B, 35° C. 24 hours

MIC average (Candida spp. [5]): 0.052 µg/mL (≈ 0.0563 µM)
MIC (C. albicans [6]; C. albicans 1): 0.032 µg/mL (≈ 0.0346 µM)
MIC (C. albicans [6]; C. albicans 2): 0.032 µg/mL (≈ 0.0346 µM)
MIC (C. albicans [6]; C. albicans 3): 0.032 µg/mL (≈ 0.0346 µM)
MIC (C. albicans [6]; C. albicans 4): 0.032 µg/mL (≈ 0.0346 µM)
MIC (C. albicans [6]; C. albicans 5): 0.016 µg/mL (≈ 0.0173 µM)
MIC (C. albicans [6]; C. albicans 6): 0.032 µg/mL (≈ 0.0346 µM)
MIC (C. albicans [6]; C. albicans 7): 0.032 µg/mL (≈ 0.0346 µM)
MIC (C. albicans [6]; C. albicans 8): 0.016 µg/mL (≈ 0.0173 µM)
MIC (C. albicans [6]; C. albicans 9): 0.125 µg/mL (≈ 0.135 µM)
MIC (C. albicans [6]; C. albicans 10): 0.032 µg/mL (≈ 0.0346 µM)
MIC (C. albicans [6]; C. albicans 11): 0.125 µg/mL (≈ 0.135 µM)
MIC (C. albicans [6]; C. albicans 12): ≤0.016 µg/mL
MIC (C. albicans [6]; C. albicans 13): 0.064 µg/mL (≈ 0.0693 µM)
MIC (C. albicans [6]; C. albicans 14): 0.032 µg/mL (≈ 0.0346 µM)
MIC (C. albicans [6]; C. albicans 15): 0.032 µg/mL (≈ 0.0346 µM)
MIC (C. glabrata [7]; C. glabrata 1): 0.032 µg/mL (≈ 0.0346 µM)
MIC (C. glabrata [7]; C. glabrata 2): 0.125 µg/mL (≈ 0.135 µM)
MIC (C. lusitaniae [8]): 0.125 µg/mL (≈ 0.135 µM)
SMILES: C[C@@H]1[C@H](O)[C@@H](C)/C=C/C=C/C=C/C=C/C=C/C=C/C=C/[C@H](O[C@@H]2O[C@H](C)[C@@H](O)[C@H](N)[C@@H]2O)C[C@@H]2O[C@](O)(C[C@@H](O)C[C@@H](O)[C@H](O)CC[C@@H](O)C[C@@H](O)CC(=O)O[C@H]1C)C[C@H](O)[C@H]2C(=O)O [Amphotericin B, amphotericin B, reference compound]
inhibition rings diameter, average (including 6.0 mm of the disk) (Candida spp. [1]; [10]): 15.4 mm
inhibition rings diameter, range (including 6.0 mm of the disk) (Candida spp. [1]; [10]): 10-20.5 mm
category of the inhibition rings (Candida spp. [1]; all 18 strains, confirmed by microdilution): “sensitivity” or “intermediate sensitivity”
Diameters of the inhibition rings (including 6.0 mm of the disk) (C. albicans [2]; C. albicans 1): 13.0 mm
Diameters of the inhibition rings (including 6.0 mm of the disk) (C. albicans [2]; C. albicans 2): 15.5 mm
Diameters of the inhibition rings (including 6.0 mm of the disk) (C. albicans [2]; C. albicans 3): 16.0 mm
Diameters of the inhibition rings (including 6.0 mm of the disk) (C. albicans [2]; C. albicans 4): 19.5 mm
Diameters of the inhibition rings (including 6.0 mm of the disk) (C. albicans [2]; C. albicans 5): 16.0 mm
Diameters of the inhibition rings (including 6.0 mm of the disk) (C. albicans [2]; C. albicans 6): 16.0 mm
Diameters of the inhibition rings (including 6.0 mm of the disk) (C. albicans [2]; C. albicans 7): 16.0 mm
Diameters of the inhibition rings (including 6.0 mm of the disk) (C. albicans [2]; C. albicans 8): 20.5 mm
Diameters of the inhibition rings (including 6.0 mm of the disk) (C. albicans [2]; C. albicans 9): 12.0 mm
Diameters of the inhibition rings (including 6.0 mm of the disk) (C. albicans [2]; C. albicans 10): 15.0 mm
Diameters of the inhibition rings (including 6.0 mm of the disk) (C. albicans [2]; C. albicans 11): 14.5 mm
Diameters of the inhibition rings (including 6.0 mm of the disk) (C. albicans [2]; C. albicans 12): 16.5 mm
Diameters of the inhibition rings (including 6.0 mm of the disk) (C. albicans [2]; C. albicans 13): 16.0 mm
Diameters of the inhibition rings (including 6.0 mm of the disk) (C. albicans [2]; C. albicans 14): 19.0 mm
Diameters of the inhibition rings (including 6.0 mm of the disk) (C. albicans [2]; C. albicans 15): 15.5 mm
Diameters of the inhibition rings (including 6.0 mm of the disk) (C. glabrata [3]; C. glabrata 1): 15.0 mm
Diameters of the inhibition rings (including 6.0 mm of the disk) (C. glabrata [3]; C. glabrata 2): 11.0 mm
Diameters of the inhibition rings (including 6.0 mm of the disk) (C. lusitaniae [4]): 10.0 mm
MFC average (Candida spp. [5]): 0.11 µg/mL (≈ 0.119 µM)
MFC (C. albicans [6]; C. albicans 1): 0.064 µg/mL (≈ 0.0693 µM)
MFC (C. albicans [6]; C. albicans 2): 0.064 µg/mL (≈ 0.0693 µM)
MFC (C. albicans [6]; C. albicans 3): 0.064 µg/mL (≈ 0.0693 µM)
MFC (C. albicans [6]; C. albicans 4): 0.125 µg/mL (≈ 0.135 µM)
MFC (C. albicans [6]; C. albicans 5): 0.250 µg/mL (≈ 0.271 µM)
MFC (C. albicans [6]; C. albicans 6): 0.064 µg/mL (≈ 0.0693 µM)
MFC (C. albicans [6]; C. albicans 7): 0.064 µg/mL (≈ 0.0693 µM)
MFC (C. albicans [6]; C. albicans 8): 0.032 µg/mL (≈ 0.0346 µM)
MFC (C. albicans [6]; C. albicans 9): 0.250 µg/mL (≈ 0.271 µM)
MFC (C. albicans [6]; C. albicans 10): 0.032 µg/mL (≈ 0.0346 µM)
MFC (C. albicans [6]; C. albicans 11): 0.250 µg/mL (≈ 0.271 µM)
MFC (C. albicans [6]; C. albicans 12): 0.016 µg/mL (≈ 0.0173 µM)
MFC (C. albicans [6]; C. albicans 13): 0.125 µg/mL (≈ 0.135 µM)
MFC (C. albicans [6]; C. albicans 14): 0.125 µg/mL (≈ 0.135 µM)
MFC (C. albicans [6]; C. albicans 15): 0.064 µg/mL (≈ 0.0693 µM)
MFC (C. glabrata [7]; C. glabrata 1): 0.064 µg/mL (≈ 0.0693 µM)
MFC (C. glabrata [7]; C. glabrata 2): 0.125 µg/mL (≈ 0.135 µM)
MFC (C. lusitaniae [8]): 0.250 µg/mL (≈ 0.271 µM)

SMILES: CC1=CCC2CC1C2(C)C (stereo not drawn) [α-pinene]
advantage when administered in combination with cinnamaldehyde or eugenol [9]: did not show any advantage
